Measured values published in patent US8877752B2, “4(1H)-quinolones having antimalarial activity with reduced chemical resistance” (University of South Florida, priority 2011, dated 2014).
Where two headings read alike, the source gives them in different places.

Key:
[1] = system: P. falciparum TM90-C2B/Thailand (chloroquine-, mefloquine-, pyrimethamine-, and atovaquone-resistant); assay: in vitro antimalarial activity against TM90-C2B (SYBR Green I); type: cell-based; settings: for EC50: Plasmodium falciparum, read-out: EC50 against TM90-C2B; for resistance index RI=EC50(TM90-C2B)/EC50(W2): RI 0.3-3.0 considered acceptable; for less potent against TM90-C2B than against W2: W2 versus TM90-C2B; for antimalarial activity against TM90-C2B (in words): comparison; for more potent against TM90-C2B compared to 27: relative to compound 27
Method: (§1) All synthesized quinolones were tested as described in Cross et al., (2010) J. Med. Chem. 53, 7076-7094 and Reid et al., (2011) Bioorg.
(§2) Parasite Culturing: P. falciparum clone W2/Indochina and TM90C2B/Thailand were grown in continuous culture using RPMI 1640 media containing 10% heat-inactivated type A+ human plasma, sodium bicarbonate (2.4 g/L), HEPES (5.94 g/L) and 4% washed human type A+ erythrocytes. Cultures were gassed with a 90% nitrogen, 5% oxygen and 5% carbon dioxide mixture followed by incubation at 37° C.
(§3) Assay Preparation: Test compounds at 5 mg/mL in DMSO were diluted at least 1:400 and then serially diluted in duplicate over 11 concentrations. P. falciparum cultures with greater than 70% ring stage parasites were diluted to 0.5-0.7% parasitemia and 1.5% hematocrit in RPMI 1640 media. In 96-well plates a volume of 90 μl/well of parasitized erythrocytes was added on top of 10 μL/well of the test compound. […] A Beckman Coulter Biomek 3000 was used to dispense test compounds, control drugs and parasitized erythrocytes into the microtiter plates. Positive and negative controls were included in each plate. […] Assay plates were placed into a plastic gassing chamber and equilibrated with 90% nitrogen, 5% oxygen and 5% carbon dioxide mixture then incubated at 37° C. for 72 hrs. The assay plates were then frozen at −80° C. until later processed for parasite growth determinations.
(§4) SYBR Green I Processing: Assay plates were removed from −80° C. storage and allowed to thaw at room temperature. Using the Beckman Biomek 3000, 100 μL was transferred from the assay plates into 96-well black assay plates. Next, 100 μl of SYBR green I (Invitrogen) in 2× lysis buffer (0.2 μl SYBR green I/mL of 2× lysis buffer (0.008% saponin, 0.08% Triton X-100, 20 mM Tris and 5 mM EDTA)) was dispensed into each well of the 96-well black assay plate using the Beckman Coulter Biomek 3000. Upon addition of SYBR green I the microtiter plates were incubated for 1 hrs. in the dark. Relative Fluorescence units (RFU) were read using a Molecular Devices Spectramax microplate reader.
(§5) Data Analysis: Data analysis was performed using a custom database manager (Dataspects, Inc). Nonlinear regression analysis was used to calculate EC50.

[2] = system: P. falciparum clone W2/Indochina (chloroquine- and pyrimethamine-resistant); assay: in vitro antimalarial activity against W2 (SYBR Green I); type: cell-based; settings: for EC50: Plasmodium falciparum, P. falciparum W2, 72 hrs incubation; for antimalarial activity against W2 (in words): comparison; for less active against W2 in comparison to 17: relative to reference compound 17
Method: as §1, §2, §3, §4, §5

P. cynomolgi sporozoites = settings: treated 5 to 7 consecutive days, cited from earlier work
[3] = P. falciparum TM90-C2B, 72 hrs incubation

## O=C1C(O)=C([C@H]2CC[C@H](c3ccc(Cl)cc3)CC2)C(=O)c2ccccc21 [ATO, atovaquone, reference compound]
[1]; [3]
  EC50: > 170 nM
[2]
  EC50: 0.53 nM

## CCCCc1cc2c(=O)c(C(=O)OC)c(C)[nH]c2cc1OCCOc1ccccc1 [Compound 5, Methyl 6-butyl-2-methyl-4-oxo-7-(2-phenoxyethoxy)-1,4-dihydroquinoline-3-carboxylate, reference compound]
[1]; [3]
  EC50: 11.2 nM
[1]
  resistance index RI=EC50(TM90-C2B)/EC50(W2): 223
  less potent against TM90-C2B than against W2: approximately 220
[2]
  EC50: 0.05 nM
P. cynomolgi sporozoites; rhesus monkeys inoculated intravenously with sporozoites
  relapse after 120 days of exposure: no relapse
P. cynomolgi sporozoites; rhesus monkeys
  curative dose: 15 mg/kg

## CCCCc1cc2c(=O)c(CC)c(C)[nH]c2cc1OCCOc1ccccc1 [Compound 16, 6-butyl-3-ethyl-2-methyl-7-(2-phenoxyethoxy)quinolin-4(1H)-one]
[1]; [3]
  EC50: 0.15 nM
[1]
  resistance index RI=EC50(TM90-C2B)/EC50(W2): 0.08
[2]
  EC50: 1.92 nM

## CCc1c(C)[nH]c2cc(OCCOc3ccccc3)c(Cl)cc2c1=O [Compound 17, 6-chloro-3-ethyl-2-methyl-7-(2-phenoxy-ethoxy)-1H-quinolin-4-one]
[1]
  antimalarial activity against TM90-C2B (in words): unaffected or slightly improved
[2]
  antimalarial activity against W2 (in words): slightly reduced activities

## CCc1c(C)[nH]c2cc(OCCOc3ccccc3)c(C)cc2c1=O [Compound 18, 3-ethyl-2,6-dimethyl-7-(2-phenoxy-ethoxy)-1H-quiolin-4-one]
[1]
  more potent against TM90-C2B compared to 27: 3 fold
[2]
  antimalarial activity against W2 (in words): less active

## CCc1c(C)[nH]c2cc(OCCOc3ccccc3)c(OC)cc2c1=O [Compound 19]
[1]
  more potent against TM90-C2B compared to 27: 3 fold
[2]
  antimalarial activity against W2 (in words): less active

## CCc1c(C)[nH]c2cc(OCOC)c(Cl)cc2c1=O [Compound 20, 6-chloro-3-ethyl-7-methoxymethoxy-2-methyl-1H-quinoline-4-one]
[2]
  less active against W2 in comparison to 17: approximately 4 fold

## CCc1c(C)[nH]c2cc(OCCN3CCOCC3)c(Cl)cc2c1=O [Compound 23, 6-chloro-3-ethyl-2-methyl-7-(2-morpholin-4-yl-ethoxy)-1H-quinolin-4-one]
other
  melting point: 270 to 271 °C

## CCc1c(C)[nH]c2cc(OCCN(C)C)c(Cl)cc2c1=O [Compound 24, 6-chloro-7-(2-dimethylamino-ethoxy)-3-ethyl-2-methyl-1H-quinolin-4-one]
other
  melting point: 227 to 230 °C

## CCc1c(C)[nH]c2cc(OCCOc3ccccc3)c(Br)cc2c1=O [Compound 25, 6-bromo-3-ethyl-2-methyl-7-(2-phenoxy-ethoxy)-1H-quinolin-4-one]
[1]
  antimalarial activity against TM90-C2B (in words): unaffected or slightly improved
[2]
  antimalarial activity against W2 (in words): slightly reduced activities

## CCc1c(C)[nH]c2cc(OCCCN3CCN(c4ccccc4)CC3)c(Cl)cc2c1=O [Compound 26, 6-chloro-3-ethyl-2-methyl-7-[3-(4-phenyl-piperazin-1-yl)-propoxy]-1H-quinolin-4-one]
[2]
  less active against W2 in comparison to 17: approximately 4 fold

## CCc1c(C)[nH]c2cc(OCCOc3ccccc3)ccc2c1=O [Compound 27, 3-ethyl-2-methyl-7-(2-phenoxyethoxy)quinolin-4(1H)-one]
[1]; [3]
  EC50: 71.3 nM
[2]
  EC50: 104 nM

## CCCCc1cc2c(=O)c(-c3ccccc3)c(C)[nH]c2cc1OCCOc1ccccc1 [Compound 31, 6-butyl-2-methyl-7-(2-phenoxyethoxy)-3-phenylquinolin-4(1H)-one]
[1]; [3]
  EC50: 764 nM

## CCCCc1cc2c(=O)c(-c3ccncc3)c(C)[nH]c2cc1OCCOc1ccccc1 [Compound 32, 6-butyl-2-methyl-7-(2-phenoxyethoxy)-3-(pyridin-4-yl)quinolin-4(1H)-one]
[1]
  antimalarial activity against TM90-C2B (in words): moderate activity in low micromolar or high nanomolar range
[2]
  antimalarial activity against W2 (in words): moderate activity in low micromolar or high nanomolar range

## CCCCc1cc2c(=O)c(-c3cccnc3)c(C)[nH]c2cc1OCCOc1ccccc1 [Compound 33, 6-butyl-2-methyl-7-(2-phenoxyethoxy)-3-(pyridin-3-yl)quinolin-4(1H)-one]
[1]
  antimalarial activity against TM90-C2B (in words): moderate activity in low micromolar or high nanomolar range
[2]
  antimalarial activity against W2 (in words): moderate activity in low micromolar or high nanomolar range

## CCCCc1cc2c(=O)c(-c3ccc(OC(F)(F)F)cc3)c(C)[nH]c2cc1OCCOc1ccccc1 [Compound 35, 6-butyl-2-methyl-7-(2-phenoxyethoxy)-3-(4-(trifluoromethoxy)phenyl)quinolin-4(1H)-one]
[1]; [3]
  EC50: 31 nM
[1]
  resistance index RI=EC50(TM90-C2B)/EC50(W2): 1.1
[2]
  EC50: 27.9 nM

## CCCCc1cc2c(=O)c(-c3cccc(Oc4ccc(F)cc4)c3)c(C)[nH]c2cc1OCCOc1ccccc1 [Compound 36, 6-butyl-3-(3-(4-fluorophenoxy)phenyl)-2-methyl-7-(2-phenoxyethoxy)quinolin-4(1H)-one]
[1]
  antimalarial activity against TM90-C2B (in words): inactive
[2]
  antimalarial activity against W2 (in words): inactive

## CCCCc1cc2c(=O)c(-c3ccc(COc4ccc(OC(F)(F)F)cc4)cc3)c(C)[nH]c2cc1OCCOc1ccccc1 [Compound 37, 6-butyl-2-methyl-7-(2-phenoxyethoxy)-3-(4-((4-(trifluoromethoxy)phenoxy)methyl)phenyl) quinolin-4(1H)-one]
[1]
  antimalarial activity against TM90-C2B (in words): inactive
[2]
  antimalarial activity against W2 (in words): inactive

## CCCCc1cc2c(=O)c(-c3ccc(C(F)(F)F)cc3F)c(C)[nH]c2cc1OCCOc1ccccc1 [Compound 41, 6-butyl-3-(2-fluoro-4-(trifluoromethyl)phenyl)-2-methyl-7-(2-phenoxyethoxy)quinolin-4(1H)-one]
[1]
  resistance index RI=EC50(TM90-C2B)/EC50(W2): pharmaceutically acceptable

## CCCCc1cc2c(=O)c(-c3c(C)noc3C)c(C)[nH]c2cc1OCCOc1ccccc1 [Compound 43, 6-butyl-3-(3,5-dimethylisoxazol-4-yl)-2-methyl-7-(2-phenoxyethoxy)quinolin-4(1H)-one]
[1]
  resistance index RI=EC50(TM90-C2B)/EC50(W2): pharmaceutically acceptable
  less potent against TM90-C2B than against W2: approximately 5
[2]
  EC50: 27 nM

## C[C@H]1[C@@H](O)O[C@@H]2O[C@@]3(C)CC[C@H]4[C@H](C)CC[C@@H]1[C@@]24OO3 [DHA, Dihydroartemisinin, reference compound]
[1]; TM90, 72 h
  EC50: 0.9 nM
[2]
  EC50: 1.8 nM
